Reference: ChEMBL document CHEMBL4732083, “Synthesis and anti-inflammatory activity of saponin derivatives of δ-oleanolic acid” (Eur J Med Chem, 2021)
Active and inactive are the calls of the source. No cut-off for these calls is given here.

Tests used:
[1] = biological target: T1, AMP-activated protein kinase, AMPK (Homo sapiens) (UniProt P54646+O43741+P54619+Q9UGJ0+Q9Y478+Q13131+Q9UGI9); assay: Activation of AMPK in human Huh-7 cells assessed as increase in AMPK phosphorylation at Thr172 residue at 10 uM measured after 12 hrs by Western blot analysis; assay type: cell-based; details: filed as activator
[2] = tested on: THP-1; assay: Antiinflammatory activity in human THP-1 cells assessed as reduction in LPS-induced TNF alpha secretion at 10 uM incubated for 12 hrs measured by ELISA; assay type: functional, cell-based
[3] = tested on: THP-1; assay: Antiinflammatory activity in human THP-1 cells assessed as reduction in LPS-induced IL6 secretion at 10 uM incubated for 12 hrs measured by ELISA; assay type: functional, cell-based
[4] = tested on: THP-1; assay: Cytotoxicity against human THP-1 cells assessed as reduction in cell viability at 1 to 10 uM; assay type: cell-based; details: thp-1, 10 µM
[5] = Metabolic stability in human liver microsomes assessed as half life in presence of NADPH by LC-MS analysis; assay type: ADME, Microsome
[6] = Metabolic stability in mouse liver microsomes assessed as half life in presence of NADPH by LC-MS analysis; assay type: ADME, Microsome
[7] = Metabolic stability in human liver microsomes assessed as intrinsic clearance in presence of NADPH by LC-MS analysis; assay type: ADME, Microsome; details: read-out: CLH
[8] = Tmax in BALB/c mouse at 10 mg/kg, po by LC/MS-MS analysis; assay type: ADME, organism-based; details: in vivo
[9] = Tmax in BALB/c mouse at 2 mg/kg, iv by LC/MS-MS analysis; assay type: ADME, organism-based; details: in vivo
[10] = Cmax in BALB/c mouse at 10 mg/kg, po by LC/MS-MS analysis; assay type: ADME, organism-based; design: route oral, dose 10 mg/kg; details: in vivo
[11] = Cmax in BALB/c mouse at 2 mg/kg, iv by LC/MS-MS analysis; assay type: ADME, organism-based; design: route intravenous, dose 2 mg/kg; details: in vivo
[12] = AUC (0 to t) in BALB/c mouse at 10 mg/kg, po by LC/MS-MS analysis; assay type: ADME, organism-based; design: dose 10 mg/kg; details: in vivo
[13] = AUC (0 to t) in BALB/c mouse at 2 mg/kg, iv by LC/MS-MS analysis; assay type: ADME, organism-based; design: dose 2 mg/kg; details: in vivo
[14] = AUC (0 to infinity) in BALB/c mouse at 10 mg/kg, po by LC/MS-MS analysis; assay type: ADME, organism-based; design: route oral, time infinity, dose 10 mg/kg; details: in vivo
[15] = AUC (0 to infinity) in BALB/c mouse at 2 mg/kg, iv by LC/MS-MS analysis; assay type: ADME, organism-based; design: route intravenous, time infinity, dose 2 mg/kg; details: in vivo
[16] = Half life in BALB/c mouse at 10 mg/kg, po by LC/MS-MS analysis; assay type: ADME, organism-based; details: in vivo
[17] = Half life in BALB/c mouse at 2 mg/kg, iv by LC/MS-MS analysis; assay type: ADME, organism-based; details: in vivo
[18] = Bioavailability in BALB/c mouse at 10 mg/kg, po by LC/MS-MS analysis; assay type: ADME, organism-based; details: in vivo
[19] = biological target: T1, AMP-activated protein kinase, AMPK (Homo sapiens); assay: Activation of AMPK in human Huh-7 cells assessed as increase in AMPK phosphorylation at Thr172 residue at 10 uM measured by Western blot analysis; assay type: cell-based; details: filed as activator, time hrs <=12, TDE = time-dependent effect
[20] = biological target: T1, AMP-activated protein kinase, AMPK (Homo sapiens); assay: Activation of AMPK in human HepG2 cells assessed as increase in AMPK phosphorylation at Thr172 residue at 10 uM measured by Western blot analysis; assay type: cell-based; details: filed as activator, time hrs <=12, TDE = time-dependent effect
[21] = biological target: T1, AMP-activated protein kinase, AMPK (Homo sapiens); assay: Activation of AMPK in human Huh-7 cells assessed as increase in AMPK phosphorylation at Thr172 measured upto 12 hrs by Western blot analysis; assay type: cell-based; details: filed as activator, dose microM <=20, time hrs <=12
[22] = biological target: T1, AMP-activated protein kinase, AMPK (Homo sapiens); assay: Activation of AMPK in human HepG2 cells assessed as increase in AMPK phosphorylation measured upto 12 hrs by Western blot analysis; assay type: cell-based; details: filed as activator, dose microM <=20, time hrs <=12
[23] = biological target: T1, AMP-activated protein kinase, AMPK (Homo sapiens); assay: Activation of AMPK in human Huh-7 cells assessed as increase in acetyl-CoA carboxylase phosphorylation at Ser79 residue at 10 uM measured by Western blot analysis; assay type: cell-based; details: filed as activator, time hrs <=12, TDE = time-dependent effect
[24] = biological target: T1, AMP-activated protein kinase, AMPK (Homo sapiens); assay: Activation of AMPK in human HepG2 cells assessed as increase in acetyl-CoA carboxylase phosphorylation at Ser79 residue at 10 uM measured by Western blot analysis; assay type: cell-based; details: filed as activator, time hrs <=12, TDE = time-dependent effect
[25] = biological target: T1, AMP-activated protein kinase, AMPK (Homo sapiens); assay: Activation of AMPK in human Huh-7 cells assessed as increase in acetyl-CoA carboxylase phosphorylation at Ser79 measured upto 12 hrs by Western blot analysis; assay type: cell-based; details: filed as activator, dose microM <=20, time hrs <=12
[26] = biological target: T1, AMP-activated protein kinase, AMPK (Homo sapiens); assay: Activation of AMPK in human HepG2 cells assessed as increase in acetyl-CoA carboxylase phosphorylation at Ser79 measured upto 12 hrs by Western blot analysis; assay type: cell-based; details: filed as activator, dose microM <=20, time hrs <=12

CC1(C)CC[C@]2(C(=O)O)CC[C@]3(C)C(=CC[C@@H]4[C@@]5(C)CC[C@H](O[C@@H]6O[C@H](C(=O)O)[C@@H](O)[C@H](O)[C@H]6O)C(C)(C)[C@@H]5CC[C@]43C)[C@@H]2C1
Activity [1]: Active

CC1(C)CC[C@]2(C(=O)O)CC[C@]3(C)C(=CC[C@@H]4[C@@]5(C)CC[C@H](O[C@@H]6O[C@H](C(=O)O)[C@@H](O)[C@H](O[C@@H]7OC[C@@H](O)[C@H](O)[C@H]7O)[C@H]6O)C(C)(C)[C@@H]5CC[C@]43C)[C@@H]2C1
Activity [1]: Active

CC1(C)CC[C@]2(C(=O)O[C@@H]3OC[C@@H](O)[C@H](O)[C@H]3O)CC[C@]3(C)C(=C2C1)CC[C@@H]1[C@@]2(C)CC[C@H](O[C@@H]4OC[C@H](O)[C@H](O)[C@H]4O)C(C)(C)[C@@H]2CC[C@]13C
Activity [2]: Active
Activity [3]: Active
Activity [4]: Non-Toxic
half-life [5]: 0.751 h
half-life [6]: > 2 h
CLint scaled [7]: 38.6 mL/min/kg
Tmax [8]: 2.67 h
Tmax [9]: 4.8 min
Cmax [10]: 728 ng/mL
Cmax [11]: 3500 ng/mL
AUC(0-t) [12]: 3000 ng·h/mL
AUC(0-t) [13]: 3220 ng·h/mL
AUC(0-inf) [14]: 3080 ng·h/mL
AUC(0-inf) [15]: 3300 ng·h/mL
half-life [16]: 1.14 h
half-life [17]: 1.74 h
bioavailability [18]: 18.6%

C[C@H]1[C@H](C)CC[C@]2(C(=O)O[C@@H]3O[C@H](CO[C@@H]4O[C@H](CO)[C@@H](O[C@@H]5O[C@@H](C)[C@H](O)[C@@H](O)[C@H]5O)[C@H](O)[C@H]4O)[C@@H](O)[C@H](O)[C@H]3O)CC[C@]3(C)C(=CC[C@@H]4[C@@]5(C)C[C@@H](O)[C@H](O)[C@@](C)(CO)[C@@H]5[C@H](O)C[C@]43C)[C@H]12
Activity [1]: Active

CC1(C)CC[C@]2(C(=O)O)CC[C@]3(C)C(=CC[C@@H]4[C@@]5(C)CC[C@H](O)[C@@](C)(CO)[C@@H]5CC[C@]43C)[C@@H]2C1
Activity [1]: Active

CC1(C)CC[C@]2(C(=O)O)CC[C@]3(C)C(=CC[C@@H]4[C@@]5(C)C[C@@H](O)[C@H](O)C(C)(C)[C@@H]5CC[C@]43C)[C@@H]2C1
Activity [1]: Active

C[C@H]1[C@H](C)CC[C@]2(C(=O)O[C@@H]3O[C@H](CO[C@@H]4O[C@H](CO)[C@@H](O[C@@H]5O[C@@H](C)[C@H](O)[C@@H](O)[C@H]5O)[C@H](O)[C@H]4O)[C@@H](O)[C@H](O)[C@H]3O)CC[C@]3(C)C(=CC[C@@H]4[C@@]5(C)C[C@@H](O)[C@H](O)[C@@](C)(CO)[C@@H]5CC[C@]43C)[C@H]12
Activity [1]: Active

CC1(C)CC[C@]2(C(=O)O)CC[C@]3(C)C(=C2C1)CC[C@@H]1[C@@]2(C)CC[C@H](O)C(C)(C)[C@@H]2CC[C@]13C
Activity [1]: Active
Activity [19]: Tde
Activity [20]: Tde
Activity [21]: Dose-dependent effect
Activity [22]: Dose-dependent effect
Activity [23]: Tde
Activity [24]: Tde
Activity [25]: Dose-dependent effect
Activity [26]: Dose-dependent effect
Activity [4]: Non-Toxic

CC1(C)CC[C@]2(C(=O)O[C@@H]3O[C@H](CO)[C@@H](O)[C@H](O)[C@H]3O)CC[C@]3(C)C(=CC[C@@H]4[C@@]5(C)CC[C@H](O[C@@H]6O[C@H](C(=O)O)[C@@H](O)[C@H](O)[C@H]6O[C@@H]6O[C@H](CO)[C@@H](O)[C@H](O)[C@H]6O)C(C)(C)[C@@H]5CC[C@]43C)[C@@H]2C1
Activity [1]: Active

C[C@H]1[C@H](C)CC[C@]2(C(=O)O)CC[C@]3(C)C(=CC[C@@H]4[C@@]5(C)C[C@@H](O)[C@H](O)[C@@](C)(CO)[C@@H]5CC[C@]43C)[C@H]12
Activity [1]: Active

C[C@H]1[C@H](C)CC[C@]2(C(=O)O)CC[C@]3(C)C(=CC[C@@H]4[C@@]5(C)CC[C@H](O)C(C)(C)[C@@H]5CC[C@]43C)[C@H]12
Activity [1]: Active

C[C@@H]1CC[C@]2(C(=O)O[C@@H]3O[C@H](CO)[C@@H](O)[C@H](O)[C@H]3O)CC[C@]3(C)C(=CC[C@@H]4[C@@]5(C)CC[C@H](O[C@@H]6OC[C@H](O)[C@H](O)[C@H]6O)C(C)(C)[C@@H]5CC[C@]43C)[C@@H]2[C@]1(C)O
Activity [1]: Active
